Experiments:
Type in all cases: in vivo, human
[1] = system: markers of inflammation in sputum; test: Markers of inflammation in induced sputum; conditions: geometric mean (%CV); for α-2-macroglobulin in sputum, post-baseline: mean of Days 20, 26 and 32
Description: (§1) Induced sputum was collected pre-dose on Day 1 of each treatment period (for the first treatment period, the sample could be collected up to 10 days prior to Day 1), and 2 h post-dose on Days 20, 26 and 32 (see the Additional file 1 for further detail on sputum and blood analysis methods). Blood samples were taken pre-dose on Day 1, and pre-dose and at 30 min, and 1, 1.5, 2, 3, 4, 6, 8 and 12 h post-dose on Day 32. Other pre-dose assessments on Days 1 and 32 were spirometry (forced expiratory volume in 1 s [FEV1] and forced vital capacity [FVC]), forced oscillometry, and COPD Assessment Test (CAT), with Baseline Dyspnea Index recorded on Day 1 and Transition Dyspnea Index (TDI) on Day 32. Central and peripheral airways mechanics were assessed using forced oscillometry, with the following values determined: inspiratory and expiratory resistance (at 5 and 19 Hz), inspiratory and expiratory reactance, tidal expiratory flow limitation and the percentage of flow limited breaths.
A patient had to have a minimum of one acceptable sputum sample on Day 20, 26 or 32 to be included in the sputum biomarker evaluation for that treatment period, with the available cell count and biomarker data averaged for each patient. The mean change from baseline (pre-dose on Day 1 of each treatment period) was then compared between treatments using an analysis of covariance (ANCOVA) that included treatment, patient and period as fixed effects, and baseline values as covariate. The mean change from baseline to Day 32 for biomarkers in blood were analysed using the same model as for sputum data. All data were log-transformed before analysis, and the results are presented as ratio of geometric means.
Effect of CHF6001 on inflammatory biomarkers – Additional file 1 […]
Analysis of biomarkers and CHF6001 concentration in sputum
Sputum samples were collected by sputum induction, with patients breathing in nebuli sed hypertonic saline at increasing concentrations (3%, then 4% and finally 5%) while wearing a nose clip. Sputum plugs were isolated, processed by centrifugation and analysed to determine inflammatory cell counts (with total cell counts performed by each s ite’s local laboratory and differential counts at a central laboratory), as follows.
All solid or dense-looking material was collected from the clear salivary fluid into a stainless steel Petri dish lid. Sputum plugs were then gathered and condensed into one mass. After cleaning the Petri dish, cold Dulbecco's Phosphate -Buffered Saline equal to eight times the weight of the sputum plug was added, then dispersed , mixed and vortexed for 15 sec, before gently agitating on a rolling mixer or rocker for 15 min at room temperature. The resulting mixture was centrifuged at 790 g for 10 min at 4C. A volume of the supernatant equal to four times the weight of the sputum plug was removed and again centrifuged at 1500 g for 10 min at 4C. The clarified supernatant was divided into four equal aliquots, which were shipped in an upright position at –80C to a central laboratory for biomarker assessment. Levels of biomarkers were assessed as follows:
• α-2-macroglobulin: Meso Scale Diagnostics ELISA method .
• Interleukin (IL) 6 and 1β, C-X-C motif chemokine ligand 8 (CXCL8) and tumour necrosis factor (TNF) α: Meso Scale Diagnostics Pro-inflammatory v-PLEX Plus kit.
• Leukotriene B4: High pressure liquid chromatography with tandem mass spectroscopy (HPLC-MS/MS).
• Myeloperoxidase (MPO): Meso Scale Diagnostics MPO v-PLEX kit.
• Neutrophil elastase (NE): Luminex MAGPIX System Human Sepsis Magnetic Bead […]
• Monocyte chemotactic protein (MCP) 1 (also known as C-C motif chemokine ligand [CCL] 2) and macrophage inflammatory protein (MIP) 1β (also known as CCL4):
Meso Scale Diagnostics Chemokine v-PLEX Plus kit.
• Matrix metalloproteinase (MMP) 9: Sandwich Immunoassay, using PheraSTAR Plate […]
• Total protein: Pierce BCA protein assay.
Validation procedures followed those outlined in the “Guideline on Bioanalytical Method […]

patients with COPD [2] = test: Spirometry and symptoms (FEV1, FVC, CAT, TDI); conditions: for TDI, adjusted mean difference vs placebo (95% CI): Day 32; for CAT, adjusted mean difference vs placebo (95% CI) / Pre-dose FEV1, adjusted mean difference vs placebo (95% CI) / Pre-dose FVC, adjusted mean difference vs placebo (95% CI): change from baseline to Day 32
Description: as §1
(§2) The mean changes from baseline to Day 32 for lung function, CAT and TDI were analysed using similar methodology to sputum biomarkers, but were not log-transformed. […] The sputum concentration of CHF6001 was also evaluated at 2 h post-dose, using the mean of all values measured on Days 20, 26 and 32. Pharmacokinetic variables were summarised using geometric means and coefficients of variation, except for Tmax,ss, which is presented as median (range).

patients with COPD [3] = test: Forced oscillometry; conditions: for Difference in inspiratory resistance (5-19Hz), adjusted mean difference vs placebo (95% CI) / Expiratory reactance (5 Hz), adjusted mean difference vs placebo (95% CI) / Expiratory resistance (5 Hz), adjusted mean difference vs placebo (95% CI) / Expiratory resistance (19 Hz), adjusted mean difference vs placebo (95% CI) / Inspiratory reactance (5 Hz), adjusted mean difference vs placebo (95% CI) / Inspiratory resistance (5 Hz), adjusted mean difference vs placebo (95% CI) / Inspiratory resistance (19 Hz), adjusted mean difference vs placebo (95% CI) / Percentage flow limited breaths, adjusted mean difference vs placebo (95% CI) / Tidal expiratory flow limitation, adjusted mean difference vs placebo (95% CI) / Total reactance (5 Hz), adjusted mean difference vs placebo (95% CI) / Total resistance (5 Hz), adjusted mean difference vs placebo (95% CI) / Total resistance (19 Hz), adjusted mean difference vs placebo (95% CI): change from baseline to Day 32
Description: as §1, §2

[4] = either dose (800 or 1600 μg BID)

CS(=O)(=O)Nc1ccc(C(=O)O[C@@H](Cc2c(Cl)c[n+]([O-])cc2Cl)c2ccc(OC(F)F)c(OCC3CC3)c2)cc1OCC1CC1 [CHF6001]
C-X-C motif chemokine ligand 8 in sputum, post-baseline ([1]; 800 µg BID): 1828.97 (140.2) pg/mL | Interleukin 1β in sputum, post-baseline ([1]; 800 µg BID): 13.6127 (599.5) pg/mL | Interleukin 6 in sputum, post-baseline ([1]; 800 µg BID): 48.7856 (108.7) pg/mL | Leukotriene B4 in sputum, post-baseline ([1]; 800 µg BID): 872.363 (135.0) pg/mL | Macrophage inflammatory protein 1β in sputum, post-baseline ([1]; 800 µg BID): 68.2963 (153.5) pg/mL | Matrix metalloproteinase 9 in sputum, post-baseline ([1]; 800 µg BID): 175.9824 (292.9) ng/mL | Monocyte chemotactic protein-1 in sputum, post-baseline ([1]; 800 µg BID): 136.8746 (89.9) pg/mL | Myeloperoxidase in sputum, post-baseline ([1]; 800 µg BID): 476,409.369 (720.8) pg/mL | Neutrophil elastase in sputum, post-baseline ([1]; 800 µg BID): 82,640.61 (281.5) pg/mL | Total protein in sputum, post-baseline ([1]; 800 µg BID): 320.329 (100.5) µg/mL | Tumour necrosis factor α in sputum, post-baseline ([1]; 800 µg BID): 1.595 (265.2) pg/mL | α-2-macroglobulin in sputum, post-baseline ([1]; 800 µg BID): 247.464 (233.4) ng/mL | C-X-C motif chemokine ligand 8 in sputum, post-baseline ([1]; 1600 µg BID): 2104.09 (127.3) pg/mL | Interleukin 1β in sputum, post-baseline ([1]; 1600 µg BID): 13.2876 (377.1) pg/mL | Interleukin 6 in sputum, post-baseline ([1]; 1600 µg BID): 55.8291 (107.5) pg/mL | Leukotriene B4 in sputum, post-baseline ([1]; 1600 µg BID): 678.965 (274.2) pg/mL | Macrophage inflammatory protein 1β in sputum, post-baseline ([1]; 1600 µg BID): 60.8680 (139.7) pg/mL | Matrix metalloproteinase 9 in sputum, post-baseline ([1]; 1600 µg BID): 176.3384 (249.4) ng/mL | Monocyte chemotactic protein-1 in sputum, post-baseline ([1]; 1600 µg BID): 152.5465 (108.2) pg/mL | Myeloperoxidase in sputum, post-baseline ([1]; 1600 µg BID): 494,342.192 (536.6) pg/mL | Neutrophil elastase in sputum, post-baseline ([1]; 1600 µg BID): 84,470.09 (238.7) pg/mL | Total protein in sputum, post-baseline ([1]; 1600 µg BID): 327.176 (102.5) µg/mL | Tumour necrosis factor α in sputum, post-baseline ([1]; 1600 µg BID): 1.687 (342.0) pg/mL | α-2-macroglobulin in sputum, post-baseline ([1]; 1600 µg BID): 247.877 (270.6) ng/mL | TDI, adjusted mean difference vs placebo (95% CI) (patients with COPD [2]; 800 µg BID): 0.3 (–0.1 to 0.8) | CAT, adjusted mean difference vs placebo (95% CI) (patients with COPD [2]; 800 µg BID): –0.3 (–1.4 to 0.8) | Pre-dose FEV1, adjusted mean difference vs placebo (95% CI) (patients with COPD [2]; 800 µg BID): 13 (–26 to 52) mL | Pre-dose FVC, adjusted mean difference vs placebo (95% CI) (patients with COPD [2]; 800 µg BID): 25 (–58 to 109) mL | TDI, adjusted mean difference vs placebo (95% CI) (patients with COPD [2]; 1600 µg BID): –0.1 (–0.6 to 0.4) | CAT, adjusted mean difference vs placebo (95% CI) (patients with COPD [2]; 1600 µg BID): –0.3 (–1.3 to 0.8) | Pre-dose FEV1, adjusted mean difference vs placebo (95% CI) (patients with COPD [2]; 1600 µg BID): –35 (–74 to 4) mL | Pre-dose FVC, adjusted mean difference vs placebo (95% CI) (patients with COPD [2]; 1600 µg BID): –26 (–109 to 58) mL | Lung function (FEV1 and FVC) or symptoms vs placebo (patients with COPD [2]; [4]): Neither CHF6001 dose differed from placebo | Difference in inspiratory resistance (5-19Hz), adjusted mean difference vs placebo (95% CI) (patients with COPD [3]; 800 µg BID): –0.09 (–0.32 to 0.13) cmH2O/(L/s) | Expiratory reactance (5 Hz), adjusted mean difference vs placebo (95% CI) (patients with COPD [3]; 800 µg BID): 0.14 (–0.49 to 0.77) cmH2O/(L/s) | Expiratory resistance (5 Hz), adjusted mean difference vs placebo (95% CI) (patients with COPD [3]; 800 µg BID): –0.15 (–0.45 to 0.15) cmH2O/(L/s) | Expiratory resistance (19 Hz), adjusted mean difference vs placebo (95% CI) (patients with COPD [3]; 800 µg BID): –0.04 (–0.23 to 0.15) cmH2O/(L/s) | Inspiratory reactance (5 Hz), adjusted mean difference vs placebo (95% CI) (patients with COPD [3]; 800 µg BID): 0.18 (0.00 to 0.36) cmH2O/(L/s) | Inspiratory resistance (5 Hz), adjusted mean difference vs placebo (95% CI) (patients with COPD [3]; 800 µg BID): –0.07 (–0.33 to 0.20) cmH2O/(L/s) | Inspiratory resistance (19 Hz), adjusted mean difference vs placebo (95% CI) (patients with COPD [3]; 800 µg BID): 0.06 (–0.12 to 0.24) cmH2O/(L/s) | Percentage flow limited breaths, adjusted mean difference vs placebo (95% CI) (patients with COPD [3]; 800 µg BID): 0.95 (–8.51 to 10.41) | Tidal expiratory flow limitation, adjusted mean difference vs placebo (95% CI) (patients with COPD [3]; 800 µg BID): 0.03 (–0.56 to 0.63) | Total reactance (5 Hz), adjusted mean difference vs placebo (95% CI) (patients with COPD [3]; 800 µg BID): 0.13 (–0.30 to 0.56) cmH2O/(L/s) | Total resistance (5 Hz), adjusted mean difference vs placebo (95% CI) (patients with COPD [3]; 800 µg BID): –0.13 (–0.39 to 0.13) cmH2O/(L/s) | Total resistance (19 Hz), adjusted mean difference vs placebo (95% CI) (patients with COPD [3]; 800 µg BID): –0.00 (–0.18 to 0.17) cmH2O/(L/s) | Difference in inspiratory resistance (5-19Hz), adjusted mean difference vs placebo (95% CI) (patients with COPD [3]; 1600 µg BID): 0.05 (–0.18 to 0.27) cmH2O/(L/s) | Expiratory reactance (5 Hz), adjusted mean difference vs placebo (95% CI) (patients with COPD [3]; 1600 µg BID): 0.082 (–0.55 to 0.72) cmH2O/(L/s) | Expiratory resistance (5 Hz), adjusted mean difference vs placebo (95% CI) (patients with COPD [3]; 1600 µg BID): 0.21 (–0.09 to 0.52) cmH2O/(L/s) | Expiratory resistance (19 Hz), adjusted mean difference vs placebo (95% CI) (patients with COPD [3]; 1600 µg BID): 0.14 (–0.05 to 0.33) cmH2O/(L/s) | Inspiratory reactance (5 Hz), adjusted mean difference vs placebo (95% CI) (patients with COPD [3]; 1600 µg BID): 0.14 (–0.04 to 0.32) cmH2O/(L/s) | Inspiratory resistance (5 Hz), adjusted mean difference vs placebo (95% CI) (patients with COPD [3]; 1600 µg BID): 0.23 (–0.03 to 0.50) cmH2O/(L/s) | Inspiratory resistance (19 Hz), adjusted mean difference vs placebo (95% CI) (patients with COPD [3]; 1600 µg BID): 0.17 (–0.01 to 0.35) cmH2O/(L/s) | Percentage flow limited breaths, adjusted mean difference vs placebo (95% CI) (patients with COPD [3]; 1600 µg BID): –2.06 (–11.66 to 7.53) | Tidal expiratory flow limitation, adjusted mean difference vs placebo (95% CI) (patients with COPD [3]; 1600 µg BID): 0.05 (–0.55 to 0.65) | Total reactance (5 Hz), adjusted mean difference vs placebo (95% CI) (patients with COPD [3]; 1600 µg BID): 0.03 (–0.41 to 0.47) cmH2O/(L/s) | Total resistance (5 Hz), adjusted mean difference vs placebo (95% CI) (patients with COPD [3]; 1600 µg BID): 0.22 (–0.04 to 0.49) cmH2O/(L/s) | Total resistance (19 Hz), adjusted mean difference vs placebo (95% CI) (patients with COPD [3]; 1600 µg BID): 0.15 (–0.03 to 0.32) cmH2O/(L/s) | Oscillometry parameters vs placebo (patients with COPD [3]; [4]): no consistent treatment–placebo differences
